Data: US9505728B2, “Triazolone compounds and uses thereof” (INCEPTION 2, INC., priority 2012, dated 2016)

target: T1, Human PPARα (Homo sapiens, UniProt Q07869); test: Human PPARα Reporter Assay (luciferase); type: cell-based; details: human PPARα reporter cells, overnight incubation, antagonism; read-out: Luciferase IC50
T1 construct: host or cells: proprietary non-human mammalian cells
T1 sequence (Q07869 1-468): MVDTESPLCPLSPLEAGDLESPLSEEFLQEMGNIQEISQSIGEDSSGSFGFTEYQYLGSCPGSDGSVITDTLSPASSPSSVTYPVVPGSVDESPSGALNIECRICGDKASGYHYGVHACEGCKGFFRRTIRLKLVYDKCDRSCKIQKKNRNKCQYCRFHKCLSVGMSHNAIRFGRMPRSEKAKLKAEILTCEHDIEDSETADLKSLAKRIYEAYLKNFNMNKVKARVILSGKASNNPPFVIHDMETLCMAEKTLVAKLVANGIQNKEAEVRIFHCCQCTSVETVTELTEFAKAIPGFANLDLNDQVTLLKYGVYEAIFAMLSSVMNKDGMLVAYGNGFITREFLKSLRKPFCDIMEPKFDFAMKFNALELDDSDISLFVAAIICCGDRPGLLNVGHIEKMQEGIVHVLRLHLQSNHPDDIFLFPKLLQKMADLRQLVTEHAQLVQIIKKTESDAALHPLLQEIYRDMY
Method in brief: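 Non-human mammalian cells constitutively expressing human PPARα with a PPARα-responsive luciferase reporter were dosed with compounds right after plating. After overnight incubation, media removed and detection reagent added; luminescence taken as proportional to PPARα activation, agonist or antagonist mode.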

IC50	SMILES
57 nM	CCn1c(CCCc2ccc(-c3cccc(C(=O)O)c3)cc2)nn(Cc2ccc(C(C)(C)C)cc2)c1=O [Example 2, 4′-(3-(1-(4-(tert-Butyl)benzyl)-4-ethyl-5-oxo-4,5-dihydro-1H-1,2,4-triazol-3-yl)propyl)-[1,1′-biphenyl]-3-carboxylic acid]
499 nM	CCn1c(CCCc2ccc(-c3cccc(CC(=O)O)c3)cc2)nn(Cc2ccc(C(C)(C)C)s2)c1=O [Example 54, 2-(4′-(3-(1-((5-(tert-Butyl)thiophen-2-yl)methyl)-4-ethyl-5-oxo-4,5-dihydro-1H-1,2,4-triazol-3-yl)propyl)-[1,1′-biphenyl]-3-yl)acetic acid]
816 nM	CCNC(=O)Nc1cccc(-c2ccc(CCCc3nn(Cc4ccc(C(C)(C)C)cc4)c(=O)n3CC)cc2)n1 [Example 171, 1-(6-(4-(3-(1-(4-(tert-Butyl)benzyl)-4-ethyl-5-oxo-4,5-dihydro-1H-1,2,4-triazol-3-yl)propyl)phenyl)pyridin-2-yl)-3-ethylurea]
50 nM	CCn1c(CCCc2ccc(-c3cnc(C4(O)COC4)s3)cc2)nn(Cc2ccc(C(C)(C)C)cc2)c1=O [Example 204, 1-(4-(tert-Butyl)benzyl)-4-ethyl-3-(3-(4-(2-(3-hydroxyoxetan-3-yl)thiazol-5-yl)phenyl)propyl)-1H-1,2,4-triazol-5(4H)-one]
126 nM	CCn1c(CCCc2ccc(-c3ccc(OC)c(CC(=O)O)c3)c(C(F)(F)F)c2)nn(Cc2ccc(C(C)(C)C)cc2)c1=O [Example 150, 2-(4′-(3-(1-(4-(tert-Butyl)benzyl)-4-ethyl-5-oxo-4,5-dihydro-1H-1,2,4-triazol-3-yl)propyl)-4-methoxy-2′-(trifluoromethyl)-[1,1′-biphenyl]-3-yl) acetic acid]
947 nM	CCn1c(CCCc2ccc(-c3cccc(NC(=O)Nc4ccccc4)n3)cc2)nn(Cc2ccc(C(C)(C)C)cc2)c1=O [Example 153, 1-(6-(4-(3-(1-(4-(tert-Butyl)benzyl)-4-ethyl-5-oxo-4,5-dihydro-1H-1,2,4-triazol-3-yl)propyl)phenyl)pyridin-2-yl)-3-phenylurea]
330 nM	CCn1c(CCCc2ccc(-c3cccc(C(O)C(=O)NC4CC4)c3)cc2)nn(Cc2ccc(C(C)(C)C)cc2)c1=O (stereo not shown) [Example 56, 2-(4′-(3-(1-(4-(tert-Butyl)benzyl)-4-ethyl-5-oxo-4,5-dihydro-1H-1,2,4-triazol-3-yl)propyl)-[1,1′-biphenyl]-3-yl)-N-cyclopropyl-2-hydroxyacetamide]
15 nM	CCn1c(CCC(F)(F)c2ccc(-c3ccc(OC)c(CC(=O)O)c3)cc2)nn(Cc2ccc(C(C)(C)C)cc2)c1=O [Example 163, 2-(4′-(3-(1-(4-(tert-Butyl)benzyl)-4-ethyl-5-oxo-4,5-dihydro-1H-1,2,4-triazol-3-yl)-1,1-difluoropropyl)-4-methoxy-[1,1′-biphenyl]-3-yl)acetic acid]
110 nM	CCn1c(CCC(F)(F)c2ccc(-c3ccc(C4(O)COC4)cc3)cc2)nn(Cc2ccc(C(C)(C)C)cc2)c1=O [Example 196, 1-(4-(tert-Butyl)benzyl)-3-(3,3-difluoro-3-(4′-(3-hydroxyoxetan-3-yl)-[1,1′-biphenyl]-4-yl)propyl)-4-ethyl-1H-1,2,4-triazol-5(4H)-one]
63 nM	CCOc1ccc(-c2ccc(CCCc3nn(Cc4ccc(C(C)(C)C)cc4)c(=O)n3CC)cc2)nc1N [Example 60, 3-{3-[4-(6-Amino-5-ethoxy(2-pyridyl))phenyl]propyl}-1-{[4-(tert-butyl)phenyl]methyl}-4-ethyl-1,2,4-triazolin-5-one]
114 nM	CCn1c(CCCc2ccc(-c3ccc(OC)c(CC(=O)O)n3)cc2)nn(Cc2ccc(C(C)(C)C)cc2)c1=O [Example 144, 2-(6-(4-(3-(1-(4-(tert-Butyl)benzyl)-4-ethyl-5-oxo-4,5-dihydro-1H-1,2,4-triazol-3-yl)propyl)phenyl)-3-methoxypyridin-2-yl)acetic acid]
16 nM	CCCOc1ccc(-c2ccc(CCCc3nn(Cc4ccc(C(C)(C)C)cc4)c(=O)n3CC)cc2)cc1CC(=O)O [Example 94, 2-(4′-(3-(1-(4-(tert-Butyl)benzyl)-4-ethyl-5-oxo-4,5-dihydro-1H-1,2,4-triazol-3-yl)propyl)-4-propoxy-[1,1′-biphenyl]-3-yl)acetic acid]
241 nM	CCn1c(CCCc2ccc(-c3cccc(NC(=O)NS(=O)(=O)c4ccccc4)n3)cc2)nn(Cc2ccc(C(C)(C)C)cc2)c1=O [Example 154, N-((6-(4-(3-(1-(4-(tert-Butyl)benzyl)-4-ethyl-5-oxo-4,5-dihydro-1H-1,2,4-triazol-3-yl)propyl)phenyl)pyridin-2-yl)carbamoyl)benzenesulfonamide]
250 nM	COc1ccc(-c2ccc(CCCc3nn(Cc4ccc(C(C)(C)C)cc4)c(=O)n3CC(F)(F)F)cc2)cc1CC(=O)O [Example 55, 2-(4′-(3-(1-(4-(tert-Butyl)benzyl)-5-oxo-4-(2,2,2-trifluoroethyl)-4,5-dihydro-1H-1,2,4-triazol-3-yl)propyl)-4-methoxy-[1,1′-biphenyl]-3-yl)acetic acid]
61 nM	CCn1c(CCCc2ccc(-c3ccc(OC)c(NS(=O)(=O)c4ccccc4)c3)cc2)nn(Cc2ccc(C(C)(C)C)cc2)c1=O [Example 151, 1-{[4-(tert-Butyl)phenyl]methyl}-4-ethyl-3-[3-(4-{4-methoxy-3-[(phenylsulfonyl)amino]phenyl}phenyl)propyl]-1,2,4-triazolin-5-one]
816 nM	CCn1c(CCCc2ccc(-c3cc(OC)c(NS(=O)(=O)c4ccccc4)cn3)cc2)nn(Cc2ccc(C(C)(C)C)cc2)c1=O [Example 112, 1-{[4-(tert-Butyl)phenyl]methyl}-4-ethyl-3-[3-(4-{4-methoxy-5-[(phenylsulfonyl)amino](2-pyridyl)}phenyl)propyl]-1,2,4-triazolin-5-one]
971 nM	CCn1c(CCCc2ccc(-c3ccc(NS(=O)(=O)c4ccc(C(F)(F)F)cc4)cn3)cc2)nn(Cc2ccc(C(C)(C)C)cc2)c1=O [Example 86, 1-{[4-(tert-Butyl)phenyl]methyl}-4-ethyl-3-(3-{4-[5-({[4-(trifluoromethyl)phenyl]sulfonyl}amino)(2-pyridyl)]phenyl}propyl)-1,2,4-triazolin-5-one]
281 nM	CCn1c(CCCc2ccc(-c3ccc(OC)c(C4(C(=O)O)CC4)c3)cc2)nn(Cc2ccc(C(C)(C)C)cc2)c1=O [Example 128, 1-(4′-(3-(1-(4-(tert-Butyl)benzyl)-4-ethyl-5-oxo-4,5-dihydro-1H-1,2,4-triazol-3-yl)propyl)-4-methoxy-[1,1′-biphenyl]-3-yl)cyclopropanecarboxylic acid]
941 nM	CCn1c(CCCc2ccc(-c3cnc(NS(=O)(=O)Cc4ccccc4)cn3)cc2)nn(Cc2ccc(C(C)(C)C)cc2)c1=O [Example 119, N-(5-(4-(3-(1-(4-(tert-Butyl)benzyl)-4-ethyl-5-oxo-4,5-dihydro-1H-1,2,4-triazol-3-yl)propyl)phenyl)pyrazin-2-yl)-1-phenylmethanesulfonamide]
21 nM	CCn1c(CCCc2ccc(-c3cc(OC)cc(C(=O)O)c3)cc2)nn(Cc2ccc(C(C)(C)C)cc2)c1=O [Example 193, 3-{4-[3-(1-{[4-(tert-Butyl)phenyl]methyl}-4-ethyl-5-oxo(1,2,4-triazolin-3-yl))propyl]phenyl}-5-methoxybenzoic acid]
126 nM	CCn1c(CCCc2ccc(-c3cnc(C4(O)COC4)nc3)cc2)nn(Cc2ccc(C(C)(C)C)cc2)c1=O [Example 173, 1-(4-(tert-Butyl)benzyl)-4-ethyl-3-(3-(4-(2-(3-hydroxyoxetan-3-yl)pyrimidin-5-yl)phenyl)propyl)-1H-1,2,4-triazol-5(4H)-one]
207 nM	CCn1c(CCCc2ccc(-c3ccc(NS(=O)(=O)c4ccc5c(c4)CCN5C(C)=O)cn3)cc2)nn(Cc2ccc(C(C)(C)C)cc2)c1=O [Example 75, 1-Acetyl-5-{[(6-{4-[3-(1-{[4-(tert-butyl)phenyl]methyl}-4-ethyl-5-oxo(1,2,4-triazolin-3-yl))propyl]phenyl}(3-pyridyl))amino]sulfonyl}indoline]
263 nM	CCn1c(CCCc2ccc(-c3ccc(NS(=O)(=O)Cc4ccccc4)cn3)cc2)nn(Cc2ccc(C(C)(C)C)cc2)c1=O [Example 79, 1-{[4-(tert-Butyl)phenyl]methyl}-4-ethyl-3-{3-[4-(5-{[benzylsulfonyl]amino}(2-pyridyl))phenyl]propyl}-1,2,4-triazolin-5-one]
799 nM	CCn1c(CCCc2ccc(-c3cncc(NS(=O)(=O)c4ccccc4)c3)cc2)nn(Cc2ccc(C(C)(C)C)cc2)c1=O [Example 117, N-(5-(4-(3-(1-(4-(tert-Butyl)benzyl)-4-ethyl-5-oxo-4,5-dihydro-1H-1,2,4-triazol-3-yl)propyl)phenyl)pyridin-3-yl)benzenesulfonamide]
181 nM	CCn1c(CCCc2ccc(-c3cccc(NS(=O)(=O)c4ccc(C(F)(F)F)cc4)n3)cc2)nn(Cc2ccc(C(C)(C)C)cc2)c1=O [Example 82, 1-{[4-(tert-Butyl)phenyl]methyl}-4-ethyl-3-(3-{4-[6-({[4-(trifluoromethyl)phenyl]sulfonyl}amino)(2-pyridyl)]phenyl}propyl)-1,2,4-triazolin-5-one]
